Assay results taken from patent US20190381128A1, “GLP-1 Secretagogue and Composition” (MORINAGA MILK INDUSTRY CO., LTD., priority 2017, published 2019).

What was measured:
[1] = system: GLUTag cells; test: GLP-1 secretion cell assay using GLUTag cells (ELISA of culture supernatant); assay type: cell-based, mouse; conditions: for GLP-1 secretion stimulating activity on GLUTag cells, ratio to blank group: Table 8; for GLP-1 secretion stimulating activity in comparison with the blank group: Dunnett t-test
[2] = system: GLUTag cells; test: as above; assay type: cell-based, mouse
Method: Each sample was dissolved in Milli Q water and a solution having a protein concentration of 7.5 mg/mL was prepared by the Bradford method. The solution was adjusted to pH 2.0, which is the same pH as in the human stomach, with a 1 mol/L hydrochloric acid, then pepsin (Pep, Sigma-Aldrich; in 1 mM HCL) was added in an amount of 1/12.5 (w/w) relative to the proteins, and the mixture was shaken in a 37° C. thermostat at 140 rpm for 30 minutes. Then, the pH was adjusted to 7.0 with a 1 mol/L sodium hydrogen carbonate solution to stop the digestion reaction of pepsin. Subsequently, pancreatin (Pan, Sigma-Aldrich; in 0.1 M NaHCO3) was added in an amount of 1/62.5 (w/w) relative to the proteins, and the mixture was shaken in a 37° C. thermostat at 140 rpm for a desired time (5 minutes, 10 minutes, 15 minutes, 30 minutes, 45 minutes, 60 minutes, 120 minutes, or overnight). After that, with heat at 90° C. for 3 minutes, the digestion reaction by pancreatin was stopped. The solution after digestion was lyophilized and stored at 4° C. The digestion reactions simulated the state of digestion that a micellar casein and various casein materials taken in the body undergo in the gastrointestinal tract.
GLUTag cells (see, for example, Food Funct., 2015, vol. 6, p. 2525-2534) were cultured on a culture medium containing 10% fetal bovine serum (Dulbecco's modified Eagle's medium (DMEM), GIBCO) at 37° C. in a 5% CO2 incubator for 2 to 3 days into a subconfluent layer. Then, the culture medium was removed, and the cells were suspended twice with HEPES buffer (20 mM HEPES(Sigma), 140 mM NaCl (Wako), 4.5 mM KCl (Wako), 10 mM Glucose (Wako), 1.2 mM MgCl2 (Wako), 1.2 mM CaCl2 (Wako), 0.1% BSA (Sigma), pH7.4).
The lyophilized sample of (1) was dissolved with HEPES buffer so as to give a concentration of 5 mg/mL, and 80 μL of the resulting solution was added to each well of a 48-well culture plate containing the GLUTag cells cultured therein and the cells were incubated at 37° C. for […]. After the treatment, the culture supernatant was collected and was subjected to centrifugation at 800 g at 4° C. for 5 minutes and the resulting supernatant was stored at −80° C. as an ELISA measurement sample. The amount of GLP-1 in the supernatant was measured using ELISA (Millipore) according to a protocol recommended by the manufacturer. The amount of GLP-1 was represented as a relative amount to 100% of that of a group treated only with HEPES buffer (blank group). The number of samples was always three (n=3).
The lyophilized sample of (1) was subjected to an assay using GLUTag cells by the same method and conditions as in Example 1 and the amount of GLP-1 secreted was represented as a relative amount to 100% of that of a blank group. The number of samples was always three (n=3).
The lyophilized sample of (1) was subjected to an assay using GLUTag cells by the same method and conditions as in Example 1, and the amount of GLP-1 secreted was measured as a relative amount to 100% of that of a blank group, provided that the digested product of the κ-casein material sample was diluted at a concentration of 5 mg/mL or 0.5 mg/mL in dissolution in HEPES buffer. A glycomacropeptide (CGMP: from Arla) was also provided as a sample and the standard sample was dissolved as it was in HEPES buffer at a concentration of […]. In the assay, GLUTag cells obtained through depolarizing stimulation with 70 mM KCl were used as a positive control. The amount of GLP-1 secreted was represented as a relative amount to 100% of that of a blank group. The number of samples was always three or four (n=3 to 4).
The lyophilized sample of (1) was subjected to an assay using GLUTag cells by the same method and conditions as in Example 1, and the amount of GLP-1 secreted was represented as a relative amount to 100% of that of a blank group. The number of samples was always three (n=3). […]

[3] = synthesized peptide 1 mM in HEPES buffer
[4] = synthesized peptide 5 mM in HEPES buffer

| Substance | GLP-1 secretion stimulating activity on GLUTag cells, ratio to blank group [1, 3] | GLP-1 secretion stimulating activity on GLUTag cells, ratio to blank group [1, 4] | further results |
| --- | --- | --- | --- |
| GPVRGPFPIIV (peptide 1) [SEQ ID NO: 1, peptide fragment detected in micellar casein digested product, synthesized] | 126.0% | 254.8 (*) % | GLP-1 secretion stimulating activity in comparison with the blank group ([1]; peptide 5 mM): significantly higher |
| Glycomacropeptide |  |  | GLP-1 secretion stimulating activity on GLUTag cells, ratio to blank group ([2]; Table 4, non-degraded (glycomacropeptide dissolved as it was in HEPES buffer)): 81.8% |
| HIQKEDVPSE (peptide 2) [SEQ ID NO: 2, peptide fragment detected in micellar casein digested product, synthesized] | 141.8% | 200.5 (*) % | GLP-1 secretion stimulating activity in comparison with the blank group ([1]; peptide 5 mM): significantly higher |
| HQGLPQEVLNE (peptide 4) [SEQ ID NO: 4, peptide fragment detected in micellar casein digested product, synthesized] | 158.9% | 115.6% |  |
| LEDSPEVIESPPEINT (peptide 5) [SEQ ID NO: 5, peptide fragment detected in micellar casein digested product, synthesized] | 133.9% | 136.9% |  |
| SRYPSYGLN (peptide 6) [SEQ ID NO: 6, peptide fragment found in both micellar casein hydrolysate and casein hydrolysate, synthesized] | 123.6% | 149.7% |  |
| YPVEPFTESQ (peptide 3) [SEQ ID NO: 3, peptide fragment detected in micellar casein digested product, synthesized] | 168.7 (*) % | 143.5% | GLP-1 secretion stimulating activity in comparison with the blank group ([1]; peptide 1 mM): significantly higher |
| YQKFPQYL (peptide 7) [SEQ ID NO: 7, peptide fragment found in both micellar casein hydrolysate and casein hydrolysate, synthesized] | 160.8% | 87.1% |  |
| κ-Casein: κ-casein from bovine milk (from Sigma-Aldrich) |  |  | GLP-1 secretion stimulating activity on GLUTag cells, ratio to blank group ([2]; Table 3, non-degraded, 0.5 mg/ml): 115.6 (c) %; GLP-1 secretion stimulating activity on GLUTag cells, ratio to blank group ([2]; Table 3, non-degraded, 5 mg/ml): 176.5 (b) %; GLP-1 secretion stimulating activity on GLUTag cells, ratio to blank group ([2]; Table 3, pep + pan30, 0.5 mg/ml): 140.9 (c) %; GLP-1 secretion stimulating activity on GLUTag cells, ratio to blank group ([2]; Table 3, pep + pan30, 5 mg/ml): 225.2 (b) %; GLP-1 secretion stimulating activity on GLUTag cells, ratio to blank group ([2]; Table 3, pep + pan60, 0.5 mg/ml): 149.2 (b) %; GLP-1 secretion stimulating activity on GLUTag cells, ratio to blank group ([2]; Table 3, pep + pan60, 5 mg/ml): 216.2 (b) %; GLP-1 secretion stimulating activity on GLUTag cells, ratio to blank group ([2]; Table 3, pep only, 0.5 mg/ml): 150.5 (c) %; GLP-1 secretion stimulating activity on GLUTag cells, ratio to blank group ([2]; Table 3, pep only, 5 mg/ml): 261.8 (b) % |
